From patent publication US10131744B2, “Antimicrobial polyamide compositions and mastitis treatment” (priority 2013, dated 2018)
In brackets after ≈: the same amount, converted by molar mass.

Legend:
[1] = tested on: E. faecalis (Str-15) ATCC 29212; settings: cited from earlier work
Escherichia coli = test: MIC in broth against Escherichia coli; format: cell-based
Description: (§1) The antimicrobial efficacy of twenty-five antimicrobial polymers (and Erythromycin) was evaluated using an MIC assay. For each study, a doubling dilution concentration of each antimicrobial polymer was prepared at 2× the final concentration range (0.12 to 16 μg/mL), and 100 μL of the API-null formulation was dispensed into the negative control wells. Overall, the antimicrobial polymer-containing compositions performed comparably well, or better, against the pathogens, as compared to Erythromycin (ERY).

Enterobacter species = test: MIC in broth against Enterobacter species; format: cell-based
Description: as §1

[2] = tested on: E. faecalis (Str-15) ATCC 29212; test: MIC in broth against E. faecalis; format: cell-based; settings: Enterococcus faecalis, ATCC29212
Description: The antimicrobial efficacy of twenty-five antimicrobial polymers (and Erythromycin) was evaluated using an MIC assay. […] Overall, the antimicrobial polymer-containing compositions performed comparably well, or better, against the pathogens, as compared to Erythromycin (ERY).

Streptococcus agalactiae = test: MIC in broth against Streptococcus agalactiae; format: cell-based; design: unit not given beside the values
Description: as §1

[3] = tested on: Pasteurella multocida (Canine and BRD); test: MIC in broth against Pasteurella multocida; format: cell-based
Description: as §1

[4] = tested on: Coagulase negative Staphylococcus species; test: MIC in broth against coagulase negative Staphylococcus species; format: cell-based
Description: as §1

CC[C@H]1OC(=O)[C@H](C)[C@@H](O[C@H]2C[C@@](C)(OC)[C@@H](O)[C@H](C)O2)[C@H](C)[C@@H](O[C@@H]2O[C@H](C)C[C@H](N(C)C)[C@H]2O)[C@](C)(O)C[C@@H](C)C(=O)[C@H](C)[C@@H](O)[C@]1(C)O [Ery, Erythromycin]
Known range (MIC) [1]: 1 to 4 µg/mL
MIC (Escherichia coli; isolate # 1 (mastitis)): 2 µg/mL (≈ 2.73 µM)
MIC (Escherichia coli; isolate # 2 (mastitis)): > 8 µg/mL
MIC (Escherichia coli; isolate # 3 (mastitis)): > 8 µg/mL
MIC (Escherichia coli; isolate # 4 (mastitis)): > 8 µg/mL
MIC (Escherichia coli; isolate # 5 (mastitis)): > 8 µg/mL
MIC (Escherichia coli; isolate # 6 (mastitis)): > 8 µg/mL
MIC (Escherichia coli; isolate # 7 (mastitis)): > 8 µg/mL
MIC (Escherichia coli; isolate # 8 (mastitis)): > 8 µg/mL
MIC (Escherichia coli; isolate # 9 (mastitis)): > 8 µg/mL
MIC (Escherichia coli; isolate # 10 (mastitis)): > 8 µg/mL
MIC (Escherichia coli; isolate # 11 (canine wound)): > 8 µg/mL
MIC (Escherichia coli; isolate # 12 (canine wound)): > 8 µg/mL
MIC (Escherichia coli; isolate # 13 (canine wound)): > 8 µg/mL
MIC (Escherichia coli; isolate # 14 (canine wound)): > 8 µg/mL
MIC (Escherichia coli; isolate # 15 (canine wound)): > 8 µg/mL
MIC (Escherichia coli; isolate # 16 (canine wound)): > 8 µg/mL
MIC (Escherichia coli; isolate # 17 (canine wound)): > 8 µg/mL
MIC (Escherichia coli; isolate # 18 (canine wound)): > 8 µg/mL
MIC (Escherichia coli; isolate # 19 (canine wound)): > 8 µg/mL
MIC (Escherichia coli; isolate # 20 (canine wound)): > 8 µg/mL
MIC (Enterobacter species; Enterobacter, isolate # 26 (mastitis)): > 8 µg/mL
MIC against Enterobacter species (Enterobacter species; isolate # 21 (mastitis)): >8 µg/mL
MIC against Enterobacter species (Enterobacter species; isolate # 22 (mastitis)): >8 µg/mL
MIC against Enterobacter species (Enterobacter species; isolate # 23 (mastitis)): >8 µg/mL
MIC against Enterobacter species (Enterobacter species; isolate # 24 (mastitis)): >8 µg/mL
MIC against Enterobacter species (Enterobacter species; isolate # 25 (mastitis)): >8 µg/mL
MIC against Enterobacter species (Enterobacter species; isolate # 27 (mastitis)): >8 µg/mL
MIC [2]: 2 µg/mL (≈ 2.73 µM)
MIC against Streptococcus agalactiae (Streptococcus agalactiae; isolate # 188): 0.03
MIC against Streptococcus agalactiae (Streptococcus agalactiae; isolate # 189): 0.06
MIC against Streptococcus agalactiae (Streptococcus agalactiae; isolate # 190): 0.03
MIC against Streptococcus agalactiae (Streptococcus agalactiae; isolate # 191): 0.03
MIC against Streptococcus agalactiae (Streptococcus agalactiae; isolate # 192): 0.06
MIC against Streptococcus agalactiae (Streptococcus agalactiae; isolate # 193): 0.06
MIC against Streptococcus agalactiae (Streptococcus agalactiae; isolate # 194): 0.03
MIC against Streptococcus agalactiae (Streptococcus agalactiae; isolate # 195): 0.03
MIC against Streptococcus agalactiae (Streptococcus agalactiae; isolate # 196): 0.03
MIC against Streptococcus agalactiae (Streptococcus agalactiae; isolate # 197): 0.03
MIC against Pasteurella multocida ([3]; strain # 168): 0.5
MIC against Pasteurella multocida ([3]; strain # 169): 1
MIC against Pasteurella multocida ([3]; strain # 170): 1
MIC against Pasteurella multocida ([3]; strain # 171): 0.5
MIC against Pasteurella multocida ([3]; strain # 172): 1
MIC against Pasteurella multocida ([3]; strain # 173): 2
MIC against Pasteurella multocida ([3]; strain # 174): 8
MIC against Pasteurella multocida ([3]; strain # 175): 1
MIC against Pasteurella multocida ([3]; strain # 176): 0.5
MIC against Pasteurella multocida ([3]; strain # 177): 2
MIC against Pasteurella multocida ([3]; strain # 178): 4
MIC against Pasteurella multocida ([3]; strain # 179): 2
MIC against Pasteurella multocida ([3]; strain # 180): 2
MIC against Pasteurella multocida ([3]; strain # 181): 2
MIC against Pasteurella multocida ([3]; strain # 182): 2
MIC against Pasteurella multocida ([3]; strain # 183): >8
MIC against Pasteurella multocida ([3]; strain # 184): 2
MIC against Pasteurella multocida ([3]; strain # 185): >8
MIC against Pasteurella multocida ([3]; strain # 186): 2
MIC against Pasteurella multocida ([3]; strain # 187): >8
MIC ([4]; isolate # 148): 0.12 µg/mL (≈ 0.164 µM)
MIC ([4]; isolate # 149): 0.12 µg/mL (≈ 0.164 µM)
